# How the values were obtained:
# Experiment in all cases: relative viability (nuclei count vs DMSO), 5 days (fraction); higher = more cells survive
# [1] = compound: C(C(=O)C(=O)O)Br [Bromopyruvate] + Nc1nc2[nH]cc(CCc3ccc(C(=O)N[C@@H](CCC(=O)O)C(=O)O)cc3)c2c(=O)[nH]1 [Pemetrexed] (partner 0.2 µM)
# Outline: (§1)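 For relative viability, nuclei counts in treated wells were divided by those in vehicle wells. Lung cancer cell lines had been pin-tool dosed in 1536-well plates the day after seeding and cultured for 5 days, then fixed and stained in one step (final 0.05% Triton X-100, 1% formaldehyde, 1 ug/ml Hoechst) and imaged at 4×. Doses were one drug alone or a fixed anchor-drug dose plus five library-drug doses (not always all listed) in √10 steps, and values are duplicate-plate medians.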
# [2] = compound: C(C(=O)C(=O)O)Br [Bromopyruvate] + Cc1nc(Nc2ncc(C(=O)Nc3c(C)cccc3Cl)s2)cc(N2CCN(CCO)CC2)n1 [Dasatinib] (partner 0.075 µM)
# Outline: as §1
# [3] = compound: C(C(=O)C(=O)O)Br [Bromopyruvate] + C[C@]1(O)C[C@@H](c2nc(-c3ccc4ccc(-c5ccccc5)nc4c3)c3c(N)nccn32)C1 [Linsitinib] (partner 1 µM)
# Outline: as §1
# Bicalutamide + Lapatinib = compound: CC(O)(CS(=O)(=O)c1ccc(F)cc1)C(=O)Nc1ccc(C#N)c(C(F)(F)F)c1 [Bicalutamide] + CS(=O)(=O)CCNCc1ccc(-c2ccc3ncnc(Nc4ccc(OCc5cccc(F)c5)c(Cl)c4)c3c2)o1 [Lapatinib] (partner 2 µM)
# Outline: as §1
Cell Line,relative viability ([1]; first compound 1 µM),relative viability ([1]; first compound 3.162 µM),relative viability ([1]; first compound 10 µM),relative viability ([1]; first compound 31.62 µM),relative viability ([1]; first compound 100 µM),relative viability ([2]; first compound 1 µM),relative viability ([2]; first compound 3.162 µM),relative viability ([2]; first compound 10 µM),relative viability ([2]; first compound 31.62 µM),relative viability ([2]; first compound 100 µM),relative viability ([3]; first compound 1 µM),relative viability ([3]; first compound 3.162 µM),relative viability ([3]; first compound 10 µM),relative viability ([3]; first compound 31.62 µM),relative viability ([3]; first compound 100 µM),relative viability (Bicalutamide + Lapatinib; first compound 0.08 µM),relative viability (Bicalutamide + Lapatinib; first compound 0.253 µM),relative viability (Bicalutamide + Lapatinib; first compound 0.8 µM),relative viability (Bicalutamide + Lapatinib; first compound 2.53 µM)
NCI-H2342,0.848,0.779,0.847,0.636,0.74,0.307,0.292,0.319,0.285,0.319,,,,,,,,,
SK-MES-1,0.999,0.974,0.941,0.94,1.01,0.424,0.332,0.345,0.339,0.417,1.07,1.05,1.08,0.941,1.06,0.48,0.456,0.472,0.46
NCI-H1993,0.629,0.649,0.633,0.605,0.582,0.826,0.766,0.841,0.652,0.617,0.739,0.678,0.707,0.717,0.7,,0.897,0.732,0.854
HCC-366,0.17,0.174,0.146,0.203,0.2,0.614,0.672,1.01,0.643,0.585,0.615,0.848,0.765,0.769,0.54,1.09,1.05,1.12,1
201T,0.327,0.345,0.323,0.357,0.297,0.585,0.575,0.613,0.574,0.657,1.05,1.07,1.06,1.02,1.11,1.07,0.95,1.06,1.02
HCC-827,0.26,0.247,0.26,0.262,0.266,0.249,0.366,0.329,0.326,0.317,1.01,0.932,0.926,0.962,0.981,0.171,0.178,0.171,0.193
NCI-H650,0.971,0.924,0.81,0.989,0.941,0.523,0.442,0.487,0.439,0.576,0.756,0.976,0.871,0.921,1.03,1.04,1.07,1.07,0.644
NCI-H2085,0.974,0.954,0.992,0.937,0.963,0.246,0.243,0.234,0.263,0.284,0.984,1.04,0.864,0.876,0.639,0.776,0.739,0.839,0.704
NCI-H596,0.546,0.522,0.55,0.48,0.59,0.6,0.527,0.676,0.747,0.685,0.998,0.991,1.18,1.03,1.19,1.02,1.17,1.16,1.18
SK-LU-1,0.998,0.961,1.02,0.886,0.874,0.171,0.153,0.19,0.171,0.165,1.02,1.09,1.12,0.964,1.09,0.95,0.828,0.997,0.854
A-427,1.05,0.975,1.05,0.863,1.07,0.733,0.688,0.685,0.669,0.685,1.05,1.05,1.03,1.15,1.14,0.945,1.08,1.19,1.1
NCI-H460,0.0598,0.078,0.0595,0.0647,0.0655,0.523,0.509,0.502,0.539,0.494,0.801,0.832,1.09,0.717,0.744,1.08,0.881,,0.972
NCI-H1703,,,,,,,,,,,0.602,1.08,0.709,0.678,0.655,1.16,1.03,1.18,0.643
NCI-H1792,0.904,0.997,0.699,0.894,0.983,0.81,0.892,0.91,,0.723,0.538,0.533,0.718,0.522,0.456,0.958,0.858,1.03,0.91
Calu-6,,,,,,,,,,,0.889,1.04,1.09,0.926,0.958,1.16,1.01,1.12,1.08
SW 1573,0.783,0.792,0.899,0.436,0.0549,0.598,0.684,0.492,0.276,0.0416,0.839,0.842,0.794,0.776,0.651,1.03,0.909,1.3,1.11
RERF-LC-KJ,0.49,0.507,0.457,0.49,0.468,0.882,0.797,1.04,0.878,0.73,0.885,0.935,0.952,0.906,0.933,0.904,0.862,1.07,0.705
EMC-BAC-2,0.422,0.45,0.451,0.479,0.453,0.317,0.34,0.449,0.297,0.334,0.716,0.825,0.9,0.838,0.887,0.85,0.735,0.912,0.833

# — the supplement of paper PMC10307832
